{
  "source": "patent US6907280B2",
  "about": "“Method and apparatus for objectively measuring pain, pain treatment and other related techniques” (The General Hospital Corporation, priority 1999, dated 2005)",
  "key": {"[1]": {"test_system": "reward/aversion circuitry (GOb, NAc)", "assay": "Cocaine expectancy fMRI (prior to/shortly after infusion, before pharmacological effects)", "format": "in vivo, human", "details": "right hemisphere", "description": "Also, drug expectancy effects can be observed prior to the infusion of cocaine vs. saline. […] These effects result from probability assessments regarding the potential of receiving a drug reward (i.e. a previously experienced reward)."}, "[2]": {"test_system": "reward/aversion circuitry (GOb, NAc, SLEA, amygdala, VT)", "assay": "Double-blind cocaine vs saline infusion fMRI in cocaine addicts (Table II Cocaine (1))", "details": "Outcomes, right hemisphere"}, "VT/PAG brain region": {"test_system": "VT/PAG brain region", "assay": "fMRI of VT/PAG during intravenous naloxone infusion", "format": "in vivo, human", "details": "naloxone 4 mg/70 kg i.v., infusion period vs preinfusion", "experimental": "Referring to FIGS. 10E and 10F, central nervous system (CNS) activity in reward/aversive regions is shown in response to an infusion of naloxone (in a dose of 4 mg/70 kg) in a subject.\nReferring now to FIG. 10E, the VT/PAG (combined left and right components in region 820) having an activation 820 in response to an infusion of naloxone in a subject. The size and shade of the region 420a indicates the extent of activation and statistical significance respectively within the region. […] In region 820, a darker shade of gray indicates a less significant activation while a region indicated by a lighter shade of gray indicates a more significant activation.\nThe period 822a has a duration typically of about five minutes followed by the infusion period 822b having a duration typically of about five minutes.\nThe response is represented by curve 828 showing preinfusion (white background) and post-infusion (stippled background) time points.\nAs is known, the VT/PAG is part of the reward/aversion circuitry in the brain and since infusion of naloxone elicits a corresponding decrease (as measured by percentage signal change) in the VT/PAG response, the VT/PAG is said to be negatively valenced with respect to a drug that affects pain function, and analgesic responses to pain."}, "[3]": {"assay": "Heat/capsaicin sensitization model on the face: VAS pain ratings", "format": "in vivo, human", "details": "11 point VAS 0-10", "experimental": "(§1) In one experiment, the following paradigm was used. First allodynia was induced by application of heat in the form of a heat probe as described above to portions of the face of a subject. The heat was applied at a temperature of 44° C. for time period of 5 minutes. Next, a 0.075% capsaicin cream was applied for 20 minutes in the same facial area where the heat probe had been. The capsaicin cream was modified following the method described in “A new human experimental pain model: the heat/capsaicin sensitization model,” Petersen and Rowbotham, Neuroreport. 1999; 10(7):1511-6. Allodynia was produced by the application of normally non-noxious brush and 41 ° C. stimuli to the right (R) and left (L) V2 division of the trigeminal node.\nFor the 5 minute thermal application, the capsaicin application and the pain induced by normally non-noxious mechanical and thermal stimuli to the right or left V2 region, the subjects rated the intensity of the pain they experienced using a conventional on-line VAS rating scheme (i.e. an 11 point visual analogue scale 0-10; where 0=no pain and 10=maximum pain). The subjects rated the 5 minute thermal application and the capsaicin application on the V2R as approximately 5 and 2.5, respectively, on the VAS rating scale. The application of the brush to the V2R region was rated as a 2.5 on the VAS scale and the brush to the V2L region (i.e. the untreated V2 region) produced no pain. Also, application of the 41° C. probe to the V2R region was rated as approximately 9 on the VAS scale while application of the 41° C. probe to the V2L region was rated as approximately 1 on the VAS scale."}, "[4]": {"test_system": "brainstem region spV and thalamus", "assay": "Heat/capsaicin sensitization model on the face: fMRI of spV and thalamus", "format": "in vivo, human", "experimental": "Referring now to FIG. 13, surrogate models of sensitization are explained. Activation in the spV and thalamus following allodynia produced by a heat-capsaicin model in a healthy volunteer are, together, different than in acute pain.\nas §1\nCurve 1306 represents a zero baseline signal. Curve 1300 is plotted as percent signal change vs. time (seconds).\nReferring now to FIG. 13A, a curve 1310 representing the response of the thalamus to a series of brush strokes of an example of pain 2 is shown. Curve 1312 represents a zero baseline signal. The brush strokes are applied during time periods designated 1314a, 1314b."}, "[5]": {"test_system": "aCG and NAc brain regions", "assay": "fMRI of 41° C. stimulus in subject sensitized to heat by capsaicin (hyperalgesia, Pain 2)", "format": "in vivo, human", "experimental": "Referring now to FIG. 8A, an image of an anterior cingulate gyrus (aCG) having an activation 750 in response to a 41° C. thermal stimulus is shown. […] It should be appreciated of course that any thermal mechanical, chemical device can be used to produce pain. […] Referring now to FIG. 8C, an image of aNAc region 760 in response to a 41° C. thermal stimulus is shown. […] The size and color of the activations shown in FIG. 8C indicate the relative activation and statistical significance respectively within each region."}, "NAc brain region": {"test_system": "NAc brain region", "details": "4 mg/70 kg, noxious heat 46° C.", "method": "The saline is administered using conventional intravenous techniques. The thermal stimulus is delivered to a subject using a Peltier based thermode. The size of the activations shown in FIG. 10A indicate the relative extent within each region. The size of the region corresponds to the amount of activation in a volume in the NAc. Thus, a relatively small size corresponds to a relatively low activation volume in the NAc while a relatively large size corresponds to a relatively large activation volume in the NAc.\nThe thermal pulse 794 is provided having a pulse duration typically of about thirty seconds followed by a resting period 792b having a duration typically of about thirty seconds and during which time a neutral temperature is applied to the subject. […] In one experiment, the first temperature (i.e. the neutral temperature) corresponds to a temperature typically of about 35° C. and the second temperature (i.e. the painful temperature) corresponds to a temperature typically of about 46° C. Thus, pulses 792 and 794 in FIG. 10B vary from a temperature typically of about 35° C. to a temperature typically of about 46° C. […]"}, "[6]": {"test_system": "reward/aversion circuitry (GOb, NAc, SLEA, amygdala, VT)", "assay": "Unblinded low-dose morphine vs saline infusion fMRI in drug-naive healthy volunteers", "format": "in vivo, human", "description": "Error bars are included for the MRI data acquired as the 20′ time-point, the 70′ time-point, the 150′ time-point, and the 250′ time-point. Time is represented in seconds using a conversion of repetition time (TR)=6 RR intervals=6 seconds. […] (Table II)"}, "[7]": {"details": "Outcomes, Morphine, right hemisphere"}},
  "data": [
    {"smiles": "COC(=O)[C@H]1[C@@H](OC(=O)c2ccccc2)C[C@@H]2CC[C@H]1N2C", "note": "[cocaine]", "values": [
      {"measurement": "Activation, Gob R", "setting": "[1]", "value": "X^2"},
      {"measurement": "Activation, Amygdala R", "setting": "[2]", "value": "(X)"},
      {"measurement": "Activation, SLEA R", "setting": "[2]", "value": "(X)"}
    ]},
    {"smiles": "C=CCN1CC[C@]23c4c5ccc(O)c4O[C@H]2C(=O)CC[C@@]3(O)[C@H]1C5", "note": "[naloxone]", "values": [
      {"measurement": "VT/PAG signal change during infusion", "setting": "VT/PAG brain region", "value": "negative percent change"}
    ]},
    {"smiles": "COc1cc(CNC(=O)CCCC/C=C/C(C)C)ccc1O", "note": "[capsaicin]", "values": [
      {"measurement": "Pain intensity rating of the capsaicin application", "setting": "[3]; 0.075% capsaicin cream 20 minutes on V2R", "value": "~2.5"},
      {"measurement": "Pain intensity rating of 41° C. probe on treated region", "setting": "[3]; 41° C. probe to V2R after heat/capsaicin", "value": "approximately 9"},
      {"measurement": "Pain intensity rating of brush on treated region", "setting": "[3]; brush to V2R after heat/capsaicin", "value": 2.5},
      {"measurement": "Ipsilateral spV activation", "setting": "[4]; 41° C. thermal probe to V2 skin treated with capsaicin", "value": "activation in the ipsilateral spV was observed"},
      {"measurement": "Contralateral thalamus signal change", "setting": "[4]; brush induced allodynia, heat-capsaicin model, p<0.01 t-test", "value": "decrease in signal"},
      {"measurement": "NAc signal change to thermal pulse", "setting": "[5]", "value": "negative percentage change"},
      {"measurement": "aCG signal change to thermal pulse", "setting": "[5]", "value": "positive percentage change"}
    ]},
    {"smiles": "CN1CC[C@]23c4c5ccc(O)c4O[C@H]2[C@@H](O)C=C[C@H]3[C@H]1C5", "note": "[morphine]", "values": [
      {"measurement": "Analgesic effect determined from NAc activation", "setting": "NAc brain region", "value": "attenuates pain"},
      {"measurement": "Activation, Gob R", "setting": "[6]; [7]", "value": "(X)"},
      {"measurement": "Activation, NAc R", "setting": "[6]; [7]", "value": "X^3"},
      {"measurement": "Activation, SLEA R", "setting": "[6]; [7]", "value": "X^2"},
      {"measurement": "Laterality of NAc signal changes", "setting": "[6]; averaged time-course, right and left NAc, morphine vs saline", "value": "bilateral NAc changes"},
      {"measurement": "Valence of NAc signal", "setting": "[6]; drug reward", "value": "positively valenced signal"},
      {"measurement": "Activation of reward regions such as the NAc", "setting": "[6]; low dose morphine, healthy volunteers", "value": "activation"},
      {"measurement": "Subjective effect", "setting": "[6]; very low doses of morphine", "value": "mild euphoria"}
    ]}
  ]
}
